Assay results from PubChem BioAssay (NCI).
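Following 48 hours of exposure in 96-well plates, responses at five concentrations were used to interpolate endpoints linearly. TGI is the concentration that stops growth completely.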

Experiments:
Assay in all cases: NCI-60 cell line screen, 48 h
[1] = tested on: EKVX NSCLC
[2] = tested on: HCC-2998 colon
[3] = tested on: NCI-H23 lung
[4] = tested on: SK-OV-3 ovarian
[5] = tested on: SNB-75 CNS
[6] = tested on: MOLT-4 leukemia
[7] = tested on: RXF 393 renal
[8] = tested on: M14 melanoma
[9] = tested on: NCI/ADR-RES ovarian
[10] = tested on: COLO 205 colon
[11] = tested on: A549 NSCLC
[12] = tested on: HOP-62 NSCLC
[13] = tested on: OVCAR-4 ovarian
[14] = tested on: KM12 colon
[15] = tested on: T-47D breast
[16] = tested on: IGROV1 ovarian
[17] = tested on: HT29 colon
[18] = tested on: SK-MEL-5 melanoma
[19] = tested on: NCI-H460 lung
[20] = tested on: SW-620 colon
[21] = tested on: BT-549 breast
[22] = tested on: DU-145 prostate
[23] = tested on: HCT-15 colon
[24] = tested on: TK-10 renal
[25] = tested on: CAKI-1 renal
[26] = tested on: HOP-92 NSCLC
[27] = tested on: SF-295 CNS
[28] = tested on: MDA-MB-231 breast
[29] = tested on: UACC-257 melanoma
[30] = tested on: NCI-H226 lung
[31] = tested on: UO-31 renal
[32] = tested on: HL-60(TB) leukemia
[33] = tested on: LOX IMVI melanoma
[34] = tested on: SK-MEL-28 melanoma
[35] = tested on: A498 renal
[36] = tested on: UACC-62 melanoma
[37] = tested on: SF-539 CNS
[38] = tested on: SN12C renal
[39] = tested on: SF-268 CNS
[40] = tested on: SNB-19 CNS
[41] = tested on: HCT-116 colon
[42] = tested on: MDA-MB-435
[43] = tested on: OVCAR-8 ovarian
[44] = tested on: OVCAR-3 ovarian
[45] = tested on: SK-MEL-2 melanoma
[46] = tested on: 786-0 renal
[47] = tested on: MCF7 breast
[48] = tested on: U251 CNS
[49] = tested on: MDA-N
[50] = tested on: OVCAR-5 ovarian
[51] = tested on: ACHN renal
[52] = tested on: RPMI-8226 leukemia
[53] = tested on: HS 578T breast
[54] = tested on: SR leukemia
[55] = tested on: PC-3 prostate
[56] = tested on: CCRF-CEM leukemia
[57] = tested on: MALME-3M melanoma
[58] = tested on: NCI-H522 lung
[59] = tested on: K-562 leukemia

Structure (SMILES): CC(=O)NC1=NC(=O)/C(=C/c2ccc(/C=C3/C(=O)N=C(NC(C)=O)N3C)cc2)N1C
- TGI [1]: > 100 µM
- TGI [2]: > 100 µM
- TGI [3]: > 100 µM
- TGI [4]: > 100 µM
- TGI [5]: > 100 µM
- TGI [6]: > 100 µM
- TGI [7]: > 100 µM
- TGI [8]: > 100 µM
- TGI [9]: > 100 µM
- TGI [10]: > 100 µM
- TGI [11]: > 100 µM
- TGI [12]: > 100 µM
- TGI [13]: > 100 µM
- TGI [14]: > 100 µM
- TGI [15]: > 100 µM
- TGI [16]: > 100 µM
- TGI [17]: > 100 µM
- TGI [18]: > 100 µM
- TGI [19]: > 100 µM
- TGI [20]: > 100 µM
- TGI [21]: > 100 µM
- TGI [22]: > 100 µM
- TGI [23]: > 100 µM
- TGI [24]: > 100 µM
- TGI [25]: > 100 µM
- TGI [26]: > 100 µM
- TGI [27]: > 100 µM
- TGI [28]: > 100 µM
- TGI [29]: > 100 µM
- TGI [30]: > 100 µM
- TGI [31]: > 100 µM
- TGI [32]: > 100 µM
- TGI [33]: > 100 µM
- TGI [34]: > 100 µM
- TGI [35]: > 100 µM
- TGI [36]: > 100 µM
- TGI [37]: > 100 µM
- TGI [38]: > 100 µM
- TGI [39]: > 100 µM
- TGI [40]: > 100 µM
- TGI [41]: > 100 µM
- TGI [42]: > 100 µM
- TGI [43]: > 100 µM
- TGI [44]: > 100 µM
- TGI [45]: > 100 µM
- TGI [46]: > 100 µM
- TGI [47]: > 100 µM
- TGI [48]: > 100 µM
- TGI [49]: > 100 µM
- TGI [50]: > 100 µM
- TGI [51]: > 100 µM

Structure (SMILES): CC1=C(C)CC2(C=C(C(C)(C)C)C(=O)C(C(C)(C)C)=C2)SC1
- TGI [1]: 36.9 µM
- TGI [3]: 57.1 µM
- TGI [4]: 71 µM
- TGI [5]: 34.2 µM
- TGI [6]: > 100 µM
- TGI [7]: 38.7 µM
- TGI [8]: 99.4 µM
- TGI [9]: 39.4 µM
- TGI [10]: 32.1 µM
- TGI [11]: 65.3 µM
- TGI [12]: 37.9 µM
- TGI [13]: > 100 µM
- TGI [52]: 33.8 µM
- TGI [14]: 55 µM
- TGI [15]: 87.3 µM
- TGI [16]: 29.4 µM
- TGI [17]: 43 µM
- TGI [18]: 27.4 µM
- TGI [19]: > 100 µM
- TGI [20]: 41.1 µM
- TGI [53]: 36.8 µM
- TGI [22]: > 100 µM
- TGI [24]: 37.9 µM
- TGI [25]: 54.9 µM
- TGI [26]: 47.7 µM
- TGI [27]: 31.4 µM
- TGI [28]: 29.2 µM
- TGI [54]: > 100 µM
- TGI [29]: > 100 µM
- TGI [55]: 73.8 µM
- TGI [30]: 34.4 µM
- TGI [31]: 29.7 µM
- TGI [32]: 64.6 µM
- TGI [33]: 33.1 µM
- TGI [35]: 35.4 µM
- TGI [36]: 95.6 µM
- TGI [37]: 38 µM
- TGI [38]: 33.2 µM
- TGI [39]: 46.6 µM
- TGI [40]: 31.5 µM
- TGI [56]: 51 µM
- TGI [41]: > 100 µM
- TGI [57]: 33.4 µM
- TGI [42]: 43.6 µM
- TGI [44]: 36.1 µM
- TGI [58]: 16.5 µM
- TGI [45]: 26 µM
- TGI [46]: 36 µM
- TGI [47]: 36.6 µM
- TGI [48]: 29.9 µM
- TGI [49]: 90.3 µM
- TGI [50]: 35.7 µM
- TGI [59]: > 100 µM
